Publication PMC9068721, “Evaluation of MxOy/fucoidan hybrid system and their application in lipase immobilization process” (Scientific Reports, 2022)

Test system: T1, lipase from Aspergillus niger (LAN)
T1 construct: gene lipA; commercial Sigma-Aldrich lipase preparation from Aspergillus niger, free (not immobilized)
Test: p-nitrophenol release at […] nm, Hanes-Woolf plot
Type: biochemical
Conditions: free enzyme, 30 °C, 2 min, 1000 rpm; substrate solution range printed as 0.005–1.5 M; apparent

SMILES: CCCCCCCCCCCCCCCC(=O)Oc1ccc([N+](=O)[O-])cc1 [p-nitrophenyl palmitate]
- Km: 580 ± 20 µM
